#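 Method: 48-hour compound exposure of cells in 96-well plates, five concentrations, linear interpolation of endpoints. GI50: concentration for 50% inhibition of growth.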 Calls of active or inactive are those of the source. No stated cut-off is given here; in the data, active = GI50 up to about 1.1 µM and inactive = higher.
# Legend:
# Test in all cases: NCI-60 cell line screen, 48 h
# EKVX = test system: EKVX
# SNB-75 = test system: SNB-75
# MOLT-4 = test system: MOLT-4
# HT-29 = test system: HT-29
# COLO 205 = test system: COLO 205
# LOX IMVI = test system: LOX IMVI
# NCI-H226 = test system: NCI-H226
# KM12 = test system: KM12
# NCI-H460 = test system: NCI-H460
# SK-OV-3 = test system: SK-OV-3
# RPMI-8226 = test system: RPMI-8226
# 786-0 = test system: 786-0
# K562 = test system: K562
# U-251 = test system: U-251
# BT-549 = test system: BT-549
# HCC 2998 = test system: HCC 2998
# OVCAR-3 = test system: OVCAR-3
# ACHN = test system: ACHN
# UACC-257 = test system: UACC-257
# IGROV-1 = test system: IGROV-1
SMILES,GI50 (EKVX),GI50 (SNB-75),GI50 (MOLT-4),GI50 (HT-29),GI50 (COLO 205),GI50 (LOX IMVI),GI50 (NCI-H226),GI50 (KM12),GI50 (NCI-H460),GI50 (SK-OV-3),GI50 (RPMI-8226),GI50 (786-0),GI50 (K562),GI50 (U-251),GI50 (BT-549),GI50 (HCC 2998),GI50 (OVCAR-3),GI50 (ACHN),GI50 (UACC-257),GI50 (IGROV-1)
O=C1/C(=C/c2ccc(O)cc2)CCCC1CN1CCCCC1 (stereo not drawn),3.25 µM (inactive),8.63 µM (inactive),2.2 µM (inactive),2.62 µM (inactive),2.16 µM (inactive),1.56 µM (inactive),7.14 µM (inactive),1.64 µM (inactive),14.3 µM (inactive),16.6 µM (inactive),1.32 µM (inactive),1.02 µM (active),1.42 µM (inactive),7.91 µM (inactive),2.55 µM (inactive),4.76 µM (inactive),4.41 µM (inactive),1.73 µM (inactive),2.52 µM (inactive),1.97 µM (inactive)
O=C1C=C(c2ccccc2)O/C1=C/C(=O)c1ccc(Cl)cc1,90.4 µM (inactive),10.6 µM (inactive),2.85 µM (inactive),18.2 µM (inactive),16.1 µM (inactive),13.3 µM (inactive),> 10 µM (inactive),20.8 µM (inactive),20.2 µM (inactive),36.1 µM (inactive),3.33 µM (inactive),15.9 µM (inactive),8.13 µM (inactive),15.7 µM (inactive),16.2 µM (inactive),15.4 µM (inactive),17.5 µM (inactive),16.6 µM (inactive),20.7 µM (inactive),18.3 µM (inactive)
CC(=O)NNc1nc(C)c(C(=O)/C=C/C=C/c2ccccc2)s1,24.2 µM (inactive),> 100 µM (inactive),56.1 µM (inactive),> 100 µM (inactive),> 100 µM (inactive),> 100 µM (inactive),> 100 µM (inactive),29.6 µM (inactive),> 100 µM (inactive),> 100 µM (inactive),76 µM (inactive),62.7 µM (inactive),,71.9 µM (inactive),> 100 µM (inactive),> 100 µM (inactive),52.2 µM (inactive),> 100 µM (inactive),66.7 µM (inactive),33.7 µM (inactive)
CN(C)C(Cc1c[nH]cn1)C(=O)N1CCCC1C(N)=O (stereo not drawn),> 100 µM (inactive),> 100 µM (inactive),> 100 µM (inactive),> 100 µM (inactive),> 100 µM (inactive),> 100 µM (inactive),> 100 µM (inactive),> 100 µM (inactive),> 100 µM (inactive),> 100 µM (inactive),> 100 µM (inactive),> 100 µM (inactive),> 100 µM (inactive),> 100 µM (inactive),> 100 µM (inactive),> 100 µM (inactive),> 100 µM (inactive),> 100 µM (inactive),,> 100 µM (inactive)
C/C(=N\Nc1nc2ccccc2s1)c1cnccn1,0.146 µM (active),2.8 µM (inactive),0.461 µM (active),0.175 µM (active),0.344 µM (active),,0.247 µM (active),2.07 µM (inactive),1.77 µM (inactive),2.08 µM (inactive),2.89 µM (inactive),2.13 µM (inactive),1.67 µM (inactive),3.67 µM (inactive),11.1 µM (inactive),7.21 µM (inactive),0.49 µM (active),0.397 µM (active),4.13 µM (inactive),0.406 µM (active)
CC1=NC(=Cc2ccc(O)cc2)C(=O)N1n1c(-c2ccccc2)nc2ccccc2c1=O,> 100 µM (inactive),> 100 µM (inactive),> 100 µM (inactive),> 100 µM (inactive),> 100 µM (inactive),> 100 µM (inactive),> 100 µM (inactive),> 100 µM (inactive),> 100 µM (inactive),> 100 µM (inactive),> 100 µM (inactive),> 100 µM (inactive),> 100 µM (inactive),,> 100 µM (inactive),> 100 µM (inactive),,> 100 µM (inactive),> 100 µM (inactive),> 100 µM (inactive)
CCO/C(Cc1ccc(Cl)cc1)=N/NC(N)=S,> 100 µM (inactive),> 100 µM (inactive),> 100 µM (inactive),> 100 µM (inactive),> 100 µM (inactive),> 100 µM (inactive),> 100 µM (inactive),> 100 µM (inactive),> 100 µM (inactive),> 100 µM (inactive),,> 100 µM (inactive),83 µM (inactive),> 100 µM (inactive),> 100 µM (inactive),> 100 µM (inactive),> 100 µM (inactive),> 100 µM (inactive),> 100 µM (inactive),> 100 µM (inactive)
Cc1ccc(-n2cc(-c3ccc(Cl)cc3)c(C#N)c2N)cc1,15.2 µM (inactive),20.3 µM (inactive),,14 µM (inactive),14.1 µM (inactive),15 µM (inactive),12.8 µM (inactive),,15.1 µM (inactive),20.7 µM (inactive),,15.3 µM (inactive),16.6 µM (inactive),14.2 µM (inactive),18.2 µM (inactive),14.9 µM (inactive),15.6 µM (inactive),18.7 µM (inactive),14.8 µM (inactive),15.9 µM (inactive)
Cc1ccc(/N=N/c2cc(=O)[nH]c(=O)[nH]2)cc1C,17.9 µM (inactive),3.9 µM (inactive),3.94 µM (inactive),1.97 µM (inactive),7.76 µM (inactive),1.71 µM (inactive),19.1 µM (inactive),12.1 µM (inactive),17.2 µM (inactive),,3.01 µM (inactive),2.82 µM (inactive),2.79 µM (inactive),15.2 µM (inactive),13.7 µM (inactive),5.01 µM (inactive),1.94 µM (inactive),11 µM (inactive),13.7 µM (inactive),13.9 µM (inactive)
CC1(C)CC2=C(SC3C=CC=CC3N2)C(=O)C1C(=O)C(N)=O (stereo not drawn),> 100 µM (inactive),> 100 µM (inactive),40.4 µM (inactive),> 100 µM (inactive),> 100 µM (inactive),> 100 µM (inactive),91 µM (inactive),> 100 µM (inactive),> 100 µM (inactive),> 100 µM (inactive),,> 100 µM (inactive),,> 100 µM (inactive),> 100 µM (inactive),> 100 µM (inactive),> 100 µM (inactive),> 100 µM (inactive),> 100 µM (inactive),> 100 µM (inactive)
S=C1NCN2CCN(CC2)CNC(=S)C(=S)NCN2CCN(CC2)CNC1=S,40.9 µM (inactive),> 100 µM (inactive),,85.5 µM (inactive),35.6 µM (inactive),22.3 µM (inactive),> 100 µM (inactive),> 100 µM (inactive),20.7 µM (inactive),> 100 µM (inactive),23.7 µM (inactive),45.1 µM (inactive),27.3 µM (inactive),37.7 µM (inactive),59 µM (inactive),78.5 µM (inactive),22 µM (inactive),72.1 µM (inactive),42.7 µM (inactive),64.3 µM (inactive)
N#Cc1c(O)n(-c2ccccc2)c(=O)c2c(N)n[nH]c12,> 100 µM (inactive),> 100 µM (inactive),> 100 µM (inactive),> 100 µM (inactive),> 100 µM (inactive),21.5 µM (inactive),> 100 µM (inactive),42.4 µM (inactive),> 100 µM (inactive),> 100 µM (inactive),> 100 µM (inactive),> 100 µM (inactive),56.4 µM (inactive),> 100 µM (inactive),> 100 µM (inactive),> 100 µM (inactive),> 100 µM (inactive),,> 100 µM (inactive),> 100 µM (inactive)
O=c1[nH]c(=O)n(C2OC(CO)C(O)C2O)c2ccsc12 (stereo not drawn),> 100 µM (inactive),> 100 µM (inactive),> 100 µM (inactive),> 100 µM (inactive),> 100 µM (inactive),> 100 µM (inactive),> 100 µM (inactive),> 100 µM (inactive),> 100 µM (inactive),,> 100 µM (inactive),> 100 µM (inactive),> 100 µM (inactive),> 100 µM (inactive),> 100 µM (inactive),> 100 µM (inactive),> 100 µM (inactive),> 100 µM (inactive),> 100 µM (inactive),> 100 µM (inactive)
CCN(CC)CCNc1ccc2ncn3c4c(OC)ccc(O)c4c(=O)c1c23,46.8 µM (inactive),46.3 µM (inactive),0.625 µM (active),7.4 µM (inactive),5.87 µM (inactive),,45.8 µM (inactive),8.17 µM (inactive),0.764 µM (active),66.2 µM (inactive),4.21 µM (inactive),8.93 µM (inactive),8.13 µM (inactive),12.6 µM (inactive),37.3 µM (inactive),5.25 µM (inactive),31.2 µM (inactive),5.94 µM (inactive),> 100 µM (inactive),5.56 µM (inactive)
Nc1sccc1S(=O)(=O)c1ccsc1N,> 100 µM (inactive),> 100 µM (inactive),> 100 µM (inactive),> 100 µM (inactive),> 100 µM (inactive),> 100 µM (inactive),> 100 µM (inactive),> 100 µM (inactive),> 100 µM (inactive),> 100 µM (inactive),> 100 µM (inactive),> 100 µM (inactive),,> 100 µM (inactive),> 100 µM (inactive),> 100 µM (inactive),> 100 µM (inactive),> 100 µM (inactive),> 100 µM (inactive),> 100 µM (inactive)
